Experiments:
[1] = system: constitutive active colorectal cancer cell (CRC) Wnt pathway; assay: HCT116 TOPFlash cellular reporter assay (Super TopFlash vector, luciferase); type: cell-based; settings: Homo sapiens, HCT-116; HCT116 Super TopFlash reporter cells, 36 hours incubation, dilution series 50 μM to 15 nM, luciferase expression
Experimental: In order to discover and characterize small molecules which inhibit the constitutive active colorectal cancer cell (CRC) Wnt pathway, a cellular reporter assay was employed. The corresponding assay cell was generated by transfection of the colorectal cancer cell line HCT116 (ATCC, #CCL-247) with the Super TopFlash vector (Morin, Science 275, 1997, 1787-1790; Molenaar et al., Cell 86 (3), 1996, 391-399). The HCT116 cell line is cultivated at 37° C. and 5% CO2 in DMEM/F-12 (Life Technologies, #11320-074), supplemented with 2 mM glutamine, 20 mM HEPES, 1.4 mM pyruvate, 0.15% Na-bicarbonate and 10% foetal bovine serum (GIBCO, #10270), this cancer cell line is pathophysiological relevant since it carries a deletion of position S45 in the β-catenin gene, leading to constitutive active Wnt signaling. Stable transfectants were generated by cotransfection with pcDNA3 and selection of stable transfected cells with 1 mg/ml G418.
(§1) In preparation of the assay, the two cell lines were plated 24 hours before at 10000 cells per well of a 384 micro titre plate (MTP) in 30 μL growth medium. Selective inhibitory activity for small molecules on the mutated Wnt pathway was determined after parallel incubation of both (TOP and FOP) HCT116 reporter cell lines with a compound dilution series from 50 μM to 15 nM in steps of 3.16-fold dilutions in CAFTY buffer (130 mM NaCl, 5 mM KCl, 20 mM HEPES, 1 mM MgCl2, 5 mM NaHCO3, pH 7.4) containing 2 mM Ca^2+ and 0.01% BSA. The compounds were thereby serially prediluted in 100% DMSO and thereafter in addition 50 fold into the CAFTY compound dilution buffer (described above). From this dilution 10 μL were added to the cells in 30 μL growth medium and incubated for 36 hours at 37° C. and 5% CO2.

[2] = system: HCT116 cells cotransfected with the FOP control vector (non-functional TCF elements); assay: HCT116 FOPFlash control reporter assay (FOP control vector, luciferase); type: cell-based; settings: Homo sapiens, HCT-116, 36 hours incubation, dilution series 50 μM to 15 nM, luciferase expression
Experimental: In a parallel approach, HCT116 cells were cotransfected with the FOP control vector and pcDNA3. The FOP vector is identical to the TOP construct, but it contains instead of functional TCF elements a randomized, non-functional sequence. For this transfection a stable transfected cell line was generated as well.
as §1

COc1ccc(NC(=O)c2ccc(-c3ccccc3)cc2)cc1C(=O)Nc1ccncc1Cl [Example 9, N-{3-[(3-chloropyridin-4-yl)carbamoyl]-4-methoxyphenyl}biphenyl-4-carboxamide]
IC50 [1]: 0.149 µM | IC50 [2]: ≥ 50 µM

CC(C)(C)OC(=O)Nc1ccc(CNC(=O)c2cc(C(=O)Nc3ccc(-c4ccccc4F)nc3)ccc2OC(F)(F)F)cn1 [Example 48, tert-butyl [5-({[5-{[6-(2-fluorophenyl)pyridin-3-yl]carbamoyl}-2-(trifluoromethoxy)benzoyl]amino}methyl)pyridin-2-yl]carbamate]
IC50 [1]: 2.05 µM | IC50 [2]: 37 µM

O=C(Nc1ccc(-c2ccccc2F)nc1)c1ccc(OC(F)(F)F)c(C(=O)Nc2cccnc2)c1 [Example 57, N^1-[6-(2-fluorophenyl)pyridin-3-yl]-N^3-(pyridin-3-yl)-4-(trifluoromethoxy) isophthalamide]
IC50 [1]: 2.6 µM | IC50 [2]: 11 µM

Cc1cncc(NC(=O)c2cc(C(=O)Nc3ccc(-c4ccccc4)cc3)ccc2OC(F)(F)F)c1 [Example 47, N^1-(biphenyl-4-yl)-N^3-(5-methylpyridin-3-yl)-4-(trifluoromethoxy) isophthalamide]
IC50 [1]: 2.63 µM | IC50 [2]: ≥ 50 µM

Cc1cc(NC(=O)c2cc(C(=O)Nc3ccc(-c4ccccc4F)nc3)ccc2OC(F)(F)F)ccn1 [Example 59, N^1-[6-(2-fluorophenyl)pyridin-3-yl]-N^3-(2-methylpyridin-4-yl)-4-(trifluoromethoxy) isophthalamide]
IC50 [1]: 1.7 µM | IC50 [2]: 5.5 µM

CCc1cc(NC(=O)c2cc(NC(=O)c3ccc(-c4ccccc4)cc3)ccc2OC)ccn1 [Example 36, N-{3-[(2-ethylpyridin-4-yl)carbamoyl]-4-methoxyphenyl}biphenyl-4-carboxamide]
IC50 [1]: 1.43 µM | IC50 [2]: 29 µM

COc1ccc(NC(=O)c2ccc(-c3ccccc3)cc2)cc1C(=O)Nc1ccncc1 [Example 1, N-[4-methoxy-3-(pyridin-4-ylcarbamoyl)phenyl]biphenyl-4-carboxamide]
IC50 [1]: 0.483 µM | IC50 [2]: 35 µM

COc1ccc(C(=O)Nc2ccc(-c3ccccc3)cc2)cc1C(=O)Nc1cccnc1C [Example 62, N^1-(biphenyl-4-yl)-4-methoxy-N^3-(2-methylpyridin-3-yl)isophthalamide]
IC50 [1]: 45 µM | IC50 [2]: ≥ 50 µM

COc1ccc(C(=O)Nc2ccc(-c3ccccc3)cc2)cc1C(=O)Nc1ccncc1C [Example 13, N^1-(biphenyl-4-yl)-4-methoxy-N^3-(3-methylpyridin-4-yl)isophthalamide]
IC50 [1]: 0.405 µM | IC50 [2]: ≥ 50 µM

O=C(Nc1ccc(-c2ccccc2)cc1)c1ccc(OC(F)(F)F)c(C(=O)NCc2cccnc2)c1 [Example 21, N^1-(biphenyl-4-yl)-N^3-(pyridin-3-ylmethyl)-4-(trifluoromethoxy)isophthalamide]
IC50 [1]: 0.16 µM | IC50 [2]: 32.5 µM

CC(C)(C)OC(=O)Nc1ccc(CNC(=O)c2cc(C(=O)Nc3ccc(-c4ccccc4)cc3)ccc2OC(F)(F)F)cn1 [Example 24, tert-butyl [5-({[5-(biphenyl-4-ylcarbamoyl)-2-(trifluoromethoxy)benzoyl]amino}methyl)pyridin-2-yl]carbamate]
IC50 [1]: 0.835 µM | IC50 [2]: 23 µM

COc1ccc(C(=O)Nc2ccc(-c3ccccc3F)nc2)cc1C(=O)Nc1ccnc(C)c1 [Example 26, N^1-[6-(2-fluorophenyl)pyridin-3-yl]-4-methoxy-N^3-(2-methylpyridin-4-yl)isophthalamide]
IC50 [1]: 0.36 µM | IC50 [2]: ≥ 50 µM

COc1cnccc1NC(=O)c1cc(C(=O)Nc2ccc(-c3ccccc3)cc2)ccc1OC(F)(F)F [Example 23, N^1-(biphenyl-4-yl)-N^3-(3-methoxypyridin-4-yl)-4-(trifluoromethoxy)isophthalamide]
IC50 [1]: 0.243 µM | IC50 [2]: ≥ 50 µM

COc1ccc(C(=O)Nc2ccc(-c3ccccc3)cc2)cc1C(=O)Nc1ccncc1F [Example 14, N^1-(biphenyl-4-yl)-N^3-(3-fluoropyridin-4-yl)-4-methoxyisophthalamide]
IC50 [1]: 0.144 µM | IC50 [2]: ≥ 50 µM

COc1ccc(NC(=O)c2ccc(-c3ccccc3)cc2)cc1C(=O)NCCCOC(C)C [Example 6, N-{3-[(3-isopropoxypropyl)carbamoyl]-4-methoxyphenyl}biphenyl-4-carboxamide]
IC50 [1]: 0.383 µM | IC50 [2]: 14.4 µM

COCCNC(=O)c1cc(NC(=O)c2ccc(-c3ccccc3)cc2)ccc1OC [Example 31, N-{4-methoxy-3-[(2-methoxyethyl)carbamoyl]phenyl}biphenyl-4-carboxamide]
IC50 [1]: 4.59 µM | IC50 [2]: ≥ 50 µM

COc1ccc(C(=O)Nc2ccc(-c3ccccc3)cc2)cc1C(=O)Nc1ccncc1Cl [Example 15, N^1-(biphenyl-4-yl)-N^3-(3-chloropyridin-4-yl)-4-methoxyisophthalamide]
IC50 [1]: 0.9 µM | IC50 [2]: ≥ 50 µM

COCCCN(C)C(=O)c1cc(NC(=O)c2ccc(-c3ccccc3)cc2)ccc1OC [Example 4, N-{4-methoxy-3-[(3-methoxypropyl)(methyl)carbamoyl]phenyl}biphenyl-4-carboxamide]
IC50 [1]: 0.815 µM | IC50 [2]: 12.2 µM

O=C(Nc1ccc(-c2ccccc2)cc1)c1ccc(OC(F)(F)F)c(C(=O)Nc2cccnc2)c1 [Example 45, N^1-(biphenyl-4-yl)-N^3-(pyridin-3-yl)-4-(trifluoromethoxy) isophthalamide]
IC50 [1]: 2.6 µM | IC50 [2]: ≥ 50 µM

COc1ccc(C(=O)Nc2ccc(-c3ccccc3)cc2)cc1C(=O)Nc1cccnc1 [Example 55, N^1-(biphenyl-4-yl)-4-methoxy-N^3-(pyridin-3-yl)isophthalamide]
IC50 [1]: 4.9 µM | IC50 [2]: 23 µM

COc1ccc(C(=O)Nc2ccc(-c3ccccc3)cc2)cc1C(=O)NCc1ccccn1 [Example 39, N^1-(biphenyl-4-yl)-4-methoxy-N^3-(pyridin-2-ylmethyl)isophthalamide]
IC50 [1]: 3.4 µM | IC50 [2]: ≥ 50 µM

COc1ccc(C(=O)Nc2ccc(-c3ccccc3)cc2)cc1C(=O)Nc1ccncc1 [Example 11, N^1-(biphenyl-4-yl)-4-methoxy-N^3-(pyridin-4-yl)isophthalamide]
IC50 [1]: 0.415 µM | IC50 [2]: 11.5 µM

Nc1ccc(CNC(=O)c2cc(C(=O)Nc3ccc(-c4ccccc4)cc3)ccc2OC(F)(F)F)cn1 [Example 29, N^3-[(6-aminopyridin-3-yl)methyl]-N^1-(biphenyl-4-yl)-4-(trifluoromethoxy)isophthalamide]
IC50 [1]: 0.76 µM | IC50 [2]: 16 µM

COc1ccc(C(=O)Nc2ccc(-c3ccccc3F)nc2)cc1C(=O)Nc1cncc(C)c1 [Example 63, N^1-[6-(2-fluorophenyl)pyridin-3-yl]-4-methoxy-N^3-(5-methylpyridin-3-yl)isophthalamide]
IC50 [1]: 26.7 µM | IC50 [2]: ≥ 50 µM

COc1ccc(C(=O)Nc2ccc(-c3ccccc3F)nc2)cc1C(=O)Nc1cccnc1 [Example 60, N^1-[6-(2-fluorophenyl)pyridin-3-yl]-4-methoxy-N^3-(pyridin-3-yl)isophthalamide]
IC50 [1]: 6.05 µM | IC50 [2]: 11 µM

COCCCNC(=O)c1cc(NC(=O)c2ccc(-c3ccccc3)cc2)ccc1OC [Example 2, N-{4-methoxy-3-[(3-methoxypropyl)carbamoyl]phenyl}biphenyl-4-carboxamide]
IC50 [1]: 0.495 µM | IC50 [2]: ≥ 50 µM

COc1ccc(NC(=O)c2ccc(-c3ccccc3)cc2)cc1C(=O)Nc1ccnc(C)c1 [Example 3, N-{4-methoxy-3-[(2-methylpyridin-4-yl)carbamoyl]phenyl}biphenyl-4-carboxamide]
IC50 [1]: 0.0917 µM | IC50 [2]: 28 µM

Cc1ccc(C(=O)Nc2ccc(-c3ccccc3)cc2)cc1C(=O)Nc1ccnc(F)c1 [Example 43, N^1-(biphenyl-4-yl)-N^3-(2-fluoropyridin-4-yl)-4-methylisophthalamide]
IC50 [1]: 1.37 µM | IC50 [2]: ≥ 50 µM

Cc1ncccc1NC(=O)c1cc(C(=O)Nc2ccc(-c3ccccc3F)nc2)ccc1OC(F)(F)F [Example 58, N^1-[6-(2-fluorophenyl)pyridin-3-yl]-N^3-(2-methylpyridin-3-yl)-4-(trifluoromethoxy) isophthalamide]
IC50 [1]: 1.9 µM | IC50 [2]: 6.6 µM

COc1ccc(C(=O)Nc2ccc(-c3ccccc3)cc2)cc1C(=O)NCc1ccc(N)nc1 [Example 61, N^3-[(6-aminopyridin-3-yl)methyl]-N^1-(bipheny-4-yl)-4-methoxyisophthalamide]
IC50 [1]: 34 µM | IC50 [2]: ≥ 50 µM

Reference: US20180028507A1, “3-CARBAMOYLPHENYL-4-CARBOXAMIDE AND ISOPHTALAMIDE DERIVATIVES AS INHIBITORS OF THE WNT SIGNALLING PATHWAY” (Bayer Pharma Aktiengesellschaft, priority 2015, published 2018)
